The results in this text go back to patent publication US10688131B2, “Peptides and scaffolds for use in immunotherapy against head and neck squamous cell carcinoma and other cancers” (Immatics Biotechnologies GmbH, priority 2016, dated 2020).

One assay concerns CD8+ T cells. Kind of assay: In vitro T-cell priming assay with aAPCs loaded with peptide/MHC complexes and anti-CD28 antibody, pMHC multimer readout. It is filed as cell-based, human. The conditions noted are these: for Wells positive [%]: percentage of positive wells among evaluable, HLA-A*02 restricted peptides; for Donors: percentage of positive donors; for Donors / Wells: HLA-A*02 healthy donors, three stimulation cycles; for Wells: percentage of positive wells. The source says:
In order to obtain information regarding the immunogenicity of the TUMAPs of the present invention, the inventors performed investigations using an in vitro T-cell priming assay based on repeated stimulations of CD8+ T cells with artificial antigen presenting cells (aAPCs) loaded with peptide/MHC complexes and anti-CD28 antibody.
In order to perform in vitro stimulations by artificial antigen presenting cells loaded with peptide-MHC complex (pMHC) and anti-CD28 antibody, the inventors first isolated CD8+ T cells from fresh HLA-A*02 leukapheresis products via positive selection using CD8 microbeads (Miltenyi Biotech, Bergisch-Gladbach, Germany) of healthy donors obtained from the University clinics Mannheim, Germany, after informed consent.
PBMCs and isolated CD8+ lymphocytes were incubated in T-cell medium (TCM) until use consisting of RPMI-Glutamax (Invitrogen, Karlsruhe, Germany) supplemented with 10% heat inactivated human AB serum (PAN-Biotech, Aidenbach, Germany), 100 U/ml Penicillin/100 μg/ml Streptomycin (Cambrex, Cologne, Germany), 1 mM sodium pyruvate (CC Pro, Oberdorla, Germany), 20 μg/ml Gentamycin (Cambrex). 2.5 ng/ml IL-7 (PromoCell, Heidelberg, Germany) and 10 U/ml IL-2 (Novartis Pharma, Nürnberg, Germany) were also added to the TCM at this step.
Generation of pMHC/anti-CD28 coated beads, T-cell stimulations and readout was performed in a highly defined in vitro system using four different pMHC molecules per stimulation condition and 8 different pMHC molecules per readout condition.
The purified co-stimulatory mouse IgG2a anti human CD28 Ab 9.3 (Jung et al., 1987) was chemically biotinylated using Sulfo-N-hydroxysuccinimidobiotin as recommended by the manufacturer (Perbio, Bonn, Germany). Beads used were 5.6 μm diameter streptavidin coated polystyrene particles (Bangs Laboratories, Illinois, USA).
pMHC used for positive and negative control stimulations were A*0201/MLA-001 (peptide […] (SEQ ID NO. 157) from modified Melan-A/MART-1) and A*0201/DDX5-001 ([…] from DDX5, SEQ ID NO. 158), respectively.
800.000 beads/200 μl were coated in 96-well plates in the presence of 4×12.5 ng different biotin-pMHC, washed and 600 ng biotin anti-CD28 were added subsequently in a volume of 200 μl. Stimulations were initiated in 96-well plates by co-incubating 1×10^6 CD8+ T cells with 2×10^5 washed coated beads in 200 μl TCM supplemented with 5 ng/ml IL-12 (PromoCell) for 3 days at 37° C. Half of the medium was then exchanged by fresh TCM supplemented with 80 U/ml IL-2 and incubating was continued for 4 days at 37° C. This stimulation cycle was performed for a total of three times. For the pMHC multimer readout using 8 different pMHC molecules per condition, a two-dimensional combinatorial coding approach was used as previously described (Andersen et al., 2012) with minor modifications encompassing coupling to 5 different fluorochromes. Finally, multimeric analyses were performed by staining the cells with Live/dead near IR dye (Invitrogen, Karlsruhe, Germany), CD8-FITC antibody clone SK1 (BD, Heidelberg, Germany) and fluorescent pMHC multimers. For analysis, a BD LSRII SORP cytometer equipped with appropriate lasers and filters was used. Peptide specific cells were calculated as percentage of total CD8+ cells. Evaluation of multimeric analysis was done using the FlowJo software (Tree Star, Oregon, USA). In vitro priming of specific multimer+CD8+ lymphocytes was detected by comparing to negative control stimulations.
Exemplary flow cytometry results after TUMAP-specific multimer staining for 2 peptides of the invention are shown in FIGS. 3A and 3B together with corresponding negative controls. Additional exemplary flow cytometry results after TUMAP-specific multimer staining for 3 peptides of the invention are shown in FIGS. 4A-4C together with corresponding negative controls.

The target in a further assay is HLA-A*02:01 (Homo sapiens, UniProt P04439, D140Y/D185E/D98H/E176V/E277Q/G131W/G231S/I119V/I121R/I166T/I218V/L300P/L318F/N151K/N90K/P208A/P217A/Q86G/Q94H/R138H/R169H/T345S). Kind of assay: MHC binding assay: UV-ligand exchange with β2m ELISA. The conditions noted are these: binding of HLA-class I restricted peptides to HLA-A*02:01. An excerpt: Candidate peptides for T cell based therapies according to the present invention were further tested for their MHC binding capacity (affinity). The individual peptide-MHC complexes were produced by UV-ligand exchange, where a UV-sensitive peptide is cleaved upon UV-irradiation, and exchanged with the peptide of interest as analyzed. Only peptide candidates that can effectively bind and stabilize the peptide-receptive MHC molecules prevent dissociation of the MHC complexes. To determine the yield of the exchange reaction, an ELISA was performed based on the detection of the light chain (β2m) of stabilized MHC complexes. The assay was performed as generally described in Rodenko et al. (Rodenko et al., 2006).
96 well MAXISorp plates (NUNC) were coated over night with 2 ug/ml streptavidin in PBS at room temperature, washed 4× and blocked for 1 h at 37° C. in 2% BSA containing blocking buffer. Refolded HLA-A*02:01/MLA-001 monomers served as standards, covering the range of 15-500 ng/ml. Peptide-MHC monomers of the UV-exchange reaction were diluted 100-fold in blocking buffer. Samples were incubated for 1 h at 37° C., washed four times, incubated with 2 ug/ml HRP conjugated anti-β2m for 1 h at 37° C., washed again and detected with TMB solution that is stopped with […]. Absorption was measured at 450 nm. Candidate peptides that show a high exchange yield (preferably higher than 50%, most preferred higher than 75%) are generally preferred for a generation and production of antibodies or fragments thereof, and/or T cell receptors or fragments thereof, as they show sufficient avidity to the MHC molecules and prevent dissociation of the MHC complexes.
In general terms: In an ELISA, binding on a coated surface is turned into a signal by an enzyme label.

With “1 (GLAGGFGGPGFPV; listed as Homo sapiens) [compound 1]”, the “Wells positive [%]” value in the assay with CD8+ T cells is reported as “+ (<20% = +)”. In the assay with HLA-A*02:01, the “Peptide exchange (MHC class I binding score, peptide exchange yield)” value (shortened to “Peptide exchange”) is on record as “++++ (>75% = ++++)”.
The corresponding values for “3 (SLYGLGGSKRISI; listed as Homo sapiens) [compound 3]” are “+ (<20% = +)” and “+++ (>50 = +++)”.
As to “74 (SLTSFLISL; listed as Homo sapiens) [compound 74]”, in the assay with HLA-A*02:01, the “Peptide exchange” value is on record as “+++ (>50 = +++)”.
The same measure, in the same setting: then “75 (ALASAPTSV; listed as Homo sapiens) [compound 75]”, with “++++ (>75% = ++++)”.
The same measure, in the same setting: then “76 (ILFDEVLTFA; listed as Homo sapiens) [compound 76]”, with “++++ (>75% = ++++)”; and “77 (SLRAFLMPI; listed as Homo sapiens) [compound 77]”, with “++ (>20% = ++)”.
Still for that read-out and setting: then “78 (VLYGDVEEL; listed as Homo sapiens) [compound 78]”, with “+++ (>50 = +++)”; and “79 (GLHQDFPSVVL; listed as Homo sapiens) [compound 79]”, with “+++ (>50 = +++)”.
As to “80 (GLYGIKDDVFL; listed as Homo sapiens) [compound 80]”, the “Peptide exchange” value with HLA-A*02:01 is listed as “++++ (>75% = ++++)”.
On the same count and under the same terms, in the case of “81 (VLAENPDIFAV; listed as Homo sapiens) [compound 81]” it was “+++ (>50 = +++)”; in that of “83 (QLLQYVYNL; listed as Homo sapiens) [compound 83]”, “++++ (>75% = ++++)”; in that of “84 (ALMAGCIQEA; listed as Homo sapiens) [compound 84]”, “++++ (>75% = ++++)”.
The same measure, in the same setting: then “85 (QLIEKITQV; listed as Homo sapiens) [compound 85]”, with “+++ (>50 = +++)”; and “86 (SLQERQVFL; listed as Homo sapiens) [compound 86]”, with “+++ (>50 = +++)”.
As to “87 (ALPEPSPAA; listed as Homo sapiens) [compound 87]”, the “Peptide exchange” value in the assay with HLA-A*02:01 is “+++ (>50 = +++)”.
Same read-out and setting: in the case of “88 (LMAPAPSTV; listed as Homo sapiens) [compound 88]” it was “+++ (>50 = +++)”; in that of “89 (VLDEGLTSV; listed as Homo sapiens) [compound 89]”, “++++ (>75% = ++++)”.
Still for that read-out and setting: in the case of “90 (TLNDGVVVQV; listed as Homo sapiens) [compound 90]” it was “++++ (>75% = ++++)”; in that of “91 (MLFENMGAYTV; listed as Homo sapiens) [compound 91]”, “++++ (>75% = ++++)”.
As to “98 (SLYKGLLSV; listed as Homo sapiens) [compound 98]”, in the assay on CD8+ T cells, the Donors result is reported as “++++ (>=70% = ++++)” and the Wells entry is on record as “++ (20%-49% = ++)”.
The corresponding values for “101 (GLLPSAESIKL; listed as Homo sapiens) [compound 101]” are “++++ (>=70% = ++++)” and “+ (<20% = +)”.
The corresponding values for “105 (STYGGGLSV; listed as Homo sapiens) [compound 105]” are “++++ (>=70% = ++++)” and “+ (<20% = +)”.
Take “108 (SLYNLGGSKRISI; listed as Homo sapiens) [compound 108]”: in the assay with CD8+ T cells, the Donors result is on record as “++++ (>=70% = ++++)” and the Wells entry was “+ (<20% = +)”.
“109 (KIQEILTQV; listed as Homo sapiens) [compound 109]”: in the assay with CD8+ T cells, the Donors result was “+++ (50%-69% = +++)” and the Wells result was “+ (<20% = +)”.
On to “113 (NLMASQPQL; listed as Homo sapiens) [compound 113]”, for which, in the assay on CD8+ T cells, the Donors entry is listed as “++++ (>=70% = ++++)” and the Wells entry is “+++ (50%-69% = +++)”.
The corresponding values for “114 (VLVPYEPPQV; listed as Homo sapiens) [compound 114]” are “++++ (>=70% = ++++)” and “+ (<20% = +)”.
The corresponding values for “118 (TLLQEQGTKTV; listed as Homo sapiens) [compound 118]” are “++ (20%-49% = ++)” and “+ (<20% = +)”.
The corresponding values for “123 (LLSGDLIFL; listed as Homo sapiens) [compound 123]” are “++++ (>=70% = ++++)” and “++ (20%-49% = ++)”.
In the case of “127 (SLFGKKYIL; listed as Homo sapiens) [compound 127]”, in the assay with CD8+ T cells, the Donors entry is recorded as “++++ (>=70% = ++++)” and the Wells result is “++ (20%-49% = ++)”.
Take “135 (GLFSQHFNL; listed as Homo sapiens) [compound 135]”: in the assay on CD8+ T cells, the Donors entry is “++ (20%-49% = ++)” and the Wells result is on record as “+ (<20% = +)”.
The corresponding values for “137 (GLAPFLLNAV; listed as Homo sapiens) [compound 137]” are “++++ (>=70% = ++++)” and “+ (<20% = +)”.
Consider “143 (YVYQNNIYL; listed as Homo sapiens) [compound 143]”, for which, in the assay on CD8+ T cells, the Donors result was “++ (20%-49% = ++)” and the Wells result is on record as “+ (<20% = +)”.
On to “145 (LLYGKYVSV; listed as Homo sapiens) [compound 145]”, for which, in the assay on CD8+ T cells, the Donors result is recorded as “++++ (>=70% = ++++)” and the Wells entry is listed as “++ (20%-49% = ++)”.
For the substance “147 (ILMDPSPEYA; listed as Homo sapiens) [compound 147]”, in the assay on CD8+ T cells, the Donors result is “++++ (>=70% = ++++)” and the Wells result was “+++ (50%-69% = +++)”.
The corresponding values for “150 (ILAEEPIYIRV; listed as Homo sapiens) [compound 150]” are “++++ (>=70% = ++++)” and “+++ (50%-69% = +++)”.
Regarding “154 (KMWEELPEVV; listed as Homo sapiens) [compound 154]”, in the assay with CD8+ T cells, the Donors entry is “++++ (>=70% = ++++)” and the Wells result is recorded as “+ (<20% = +)”.
